The text below walks through data of patent publication EP0081756A1, “New compounds with antiinflammatory and antitussive activity, process for their preparation and relative pharmaceutical compositions” (MEDEA RESEARCH S.r.l., priority 1981, dated 1983).

Data set [1] relates to whrithing by phenylquinone. In words: Analgesic activity, writhing by phenylquinone (method of Siegmund). It is filed as in vivo. Particulars: mice.
The subject of another data set is carrageenin edema. The experiment in a line: Antiinflammatory activity, carrageenin edema test (method of Winter). It is filed as in vivo. Particulars: rat; for % INHIBITION / EDEMA VOLUME Final value: 50 mg/kg oral 30 minutes before carrageenin, measured 3 hours after induction; for EDEMA VOLUME Basal value: 50 mg/kg oral. The procedure:
The antiinflammatory activity of MR 549 has been assessed by the carrageenin edema test in the rat according to the method of Winter et al. (Proc. Soc. Exp. Biol. Med., 1962, III, 544).
The product under exam and indomethaoin at equiponderant doses have been administered by the oral route 30 minutes before of the subplantar carragee ning injection; pletismographic measures of the edemas have been performed 3 hours after they had been induced.

The nature of data set [2]: Acute toxicity after single administration, mouse. It counts as in vivo. The following applies: in vivo, mouse, single administration. The source says:
(§1) The toxicity after single administrations of MR 549 has been studied in mice and rats by the oral and intraperitoneal routes.
(§2) The LD50 values have been calculated according to the method of Litchfield and Wilooxon (J. Pharm. Exp. Therap., 1949, 96, 99).

For a further data set, the system named is mouse. In words: Acute toxicity after single administration, mouse. Particulars: mice and rats, oral and intraperitoneal routes. It is filed as in vivo.
Source text: as §1, §2

A short description of data set [3]: Acute toxicity after single administration, rat. Particulars: in vivo.
Source text: as §1, §2

The next data set deals with motor activity. In words: Spontaneous motor activity. It counts as in vivo. Particulars: Swiss mouse, 50 mg/kg i.p. As to the method: The effect of MR 549 on the motor activity has been studied in the Swiss mouse, by placing two groups of animals in a box connected with a recorder detec ting spontaneous motility. On the basis of movemen- ts/minute recorded, MR 549 at the dose of 50 mg/kg i.p. has been administered to one group and the ac tivity has been recorded during the 2 hours following treatment; the second group, treated with the solvent alone, has been used as control group.

Data set [4] deals with gastric mucosa. Particulars: rat, in vivo, po.
Protocol: (§3) Male rats of S-D strain, weighing 180-200 g and fasting for 48 hours with free access to water, have been used. The product under exam have been administered by intraperitoneal routes : twice (after 24 and 31 hours from the beginning of the fasting period) at the single dose of 100 mg/kg; or three times by oral route (9.24 and 31 hours after the beginning of the fasting period) at the single dose of 150 mg/kg.
In data set [5] the test system is gastric mucosa. The experiment in a line: Gastric tolerability (method of Pisanti and Volterra). Particulars: fasting rats, 12 animals.
Protocol: as §3
The mark [6] stands for this setting: 50 mg/kg os, 30 minutes before phenylquinone injection.

Marks after values point to notes of the source that are not given here.

Turning to `CC(=O)Oc1ccccc1C(=O)O` [ACETYL-SALICYLIC ACID, acetylsalicylic acid, reference compound], in data set [1] (100 mg/kg os), the “% INHIBITION IN COMPARISON WITH CONTROLS” value turned out to be 79.6%, the “N° CONTORSIONS X̄ ± e.s.” value is recorded as 3.9 ± 1.93 and the “N° WHRITHING ANIMALS/TOTAL N&” value is 12/20.
In the case of `COc1ccc2c(c1)c(CC(=O)O)c(C)n2C(=O)c1ccc(Cl)cc1` [INDO-METHACINE, indomethacin, reference compound], in the data set with carrageenin edema, the “% INHIBITION” value stood at 53.2%, the “EDEMA VOLUME Final value” came out at 29.6 and the “EDEMA VOLUME Basal value” is 22.5.
Take `Cc1cccnc1NC(=O)C1(c2ccccc2)CCCC1` [MR 549, 2-[(1-phenyl)cyclopentyl-carbonyl]-amino-3-methylpyridine]: the 50% lethal dose (LD50) came to 300 mg/kg in data set [2] (ip); 550 mg/kg in data set [2] (po, os); 600 mg/kg in data set [3] (ip); 1100 mg/kg in data set [3] (po, os). In the data set on mouse, the “acute toxicity (verbal summary)” value is on record as “very low acute toxicity”. Besides, in data set [1] (setting [6]), the “% INHIBITION IN COMPARISON WITH CONTROLS” value amounted to 63.9%. In addition, the “N° CONTORSIONS X̄ ± e.s.” value in data set [1] (setting [6]) is 6.9 ± 2.24. Further, the “N° WHRITHING ANIMALS/TOTAL N&” value in data set [1] (setting [6]) is given as 14/20. For the same molecule, the “% INHIBITION” value with carrageenin edema came out at 38.1%. In addition, in the data set with carrageenin edema, the “EDEMA VOLUME Final value” is 31.8. Further, in the data set on carrageenin edema, the “EDEMA VOLUME Basal value” came to 22.6. In addition, the “N° recorded movements/min.” value stood at 42 movements/min with motor activity (15'); 52 movements/min in the data set with motor activity (30'); 39 movements/min in the data set on motor activity (60'); 52 movements/min with motor activity (90'); 45 movements/min with motor activity (Time: 0). Moreover, the “gastrolesive action (verbal summary)” value in the data set on gastric mucosa [4] is listed as “clearly lower than phenylbutazone”.
On to `CCCCC1C(=O)N(c2ccccc2)N(c2ccccc2)C1=O` [Phenylbu-tazone, phenylbutazone], for which, in the data set on gastric mucosa [5] (100 mg X 2 i.p.), the “% ANIMALS WITH ULCERS” value is on record as 83.30%, the “N° ANIMALS WITH ULCERS” value was 10* and the “animals died during treatment” value is given as “* an animal died during treatment”. In addition, in the data set on gastric mucosa [5] (150 mg X 3 os), the “% ANIMALS WITH ULCERS” value was 91.67%, the “N° ANIMALS WITH ULCERS” value is given as 11** and the “animals died during treatment” value is “** two animals died during treatment”.
